Laboratory results from article PMC10818749, “Toxicity Studies of Cardiac-Targeting Peptide Reveal a Robust Safety Profile” (Pharmaceutics, 2024).
Ends that are not written are not given here.

Assays:
OPRM1 = OPRM1 (Homo sapiens, UniProt P35372); assay: OPRM1 GPCR cAMP modulation assay; assay type: cell-based
Method: GPCR cAMP Modulation Assays: cAMP Hunter cell lines were grown, plated, and subjected to Eurofins’ DiscoverX HitHunter cAMP XS+ assay. Gs agonist activity, Gi agonist activity, and antagonist activity-induced assays were read using chemiluminescent signal detection. The percentage of activity was calculated for Gs and Gi agonist assays, and the percentage of inhibition was calculated for Gs antagonist assays. […]
cAMP Second ary Messenger Assay pound results in the release of calcium from intracellular stores and DiscoverX has developed a panel of cell lines stably expressing non- an increase in dye fluorescence that is measured in real-time. tagged GPCRs that endogenously signal through cAMP. […]
The enzyme is split into two complementary portions: Enzyme Ac-ceptor (EA) and Enzyme Donor (ED). […] Active enzyme can then convert a chemilumines-cent substrate, generating an output signal detectable on a standard The NHR is tagged with the ProLink™ (PK) component of our EFC microplate reader. assay system, and the SRCP domain is fused to the Enzyme Ac-ceptor component (EA) expressed in the nucleus. […]

KvLQT1/minK = KvLQT1/minK (Homo sapiens, UniProt P15382+P51787); assay: KvLQT1/minK ion channel assay; assay type: cell-based; conditions: SAFETYscan ion channel assay, up to 30 µM
Method: Ion Channel Assays: Cell lines were grown, plated, and loaded with 1× loading buffer containing 1× dye and 2.5 mM freshly prepared probenecid. Assays were performed, and activity was measured using a FLIPR Tetra. Percent of activation and percent of inhibition were calculated to determine agonist and antagonist activity, respectively. […]
The FLIPR Potassium Assay Kit from Molecular Devices is used. It exploits the permeability of thallium ions (Tl+) through both voltage-and ligand-gated potassium (K+) channels. A novel, highly-sensiti ve
Tl+ indicator dye is utilized which produces a bright fluorescent signal upon the binding to Tl+ conducted through potassium chan-nels. […]
KINOMEscan® Assay fluorescence for improved signal/noise ratio.
The KINOMEscan screening platform employs a novel and propri- Membrane Potential Assay etary active site-directed competition binding assay to quantitatively The FLIPR® Membrane Potential Assay Kit is used which utilizes a pro-measure interactions between test compounds and the kinases. prietary fluorescent indicator dye in combination with a quencher to This robust and reliable assay technology affords investigators the reflect real-time membrane potential changes associated with ion ability to extensively annotate compounds with accurate, precise channel activation and ion transporter proteins. […]

KvLQT1/minK, sequence (P51787 whole entry): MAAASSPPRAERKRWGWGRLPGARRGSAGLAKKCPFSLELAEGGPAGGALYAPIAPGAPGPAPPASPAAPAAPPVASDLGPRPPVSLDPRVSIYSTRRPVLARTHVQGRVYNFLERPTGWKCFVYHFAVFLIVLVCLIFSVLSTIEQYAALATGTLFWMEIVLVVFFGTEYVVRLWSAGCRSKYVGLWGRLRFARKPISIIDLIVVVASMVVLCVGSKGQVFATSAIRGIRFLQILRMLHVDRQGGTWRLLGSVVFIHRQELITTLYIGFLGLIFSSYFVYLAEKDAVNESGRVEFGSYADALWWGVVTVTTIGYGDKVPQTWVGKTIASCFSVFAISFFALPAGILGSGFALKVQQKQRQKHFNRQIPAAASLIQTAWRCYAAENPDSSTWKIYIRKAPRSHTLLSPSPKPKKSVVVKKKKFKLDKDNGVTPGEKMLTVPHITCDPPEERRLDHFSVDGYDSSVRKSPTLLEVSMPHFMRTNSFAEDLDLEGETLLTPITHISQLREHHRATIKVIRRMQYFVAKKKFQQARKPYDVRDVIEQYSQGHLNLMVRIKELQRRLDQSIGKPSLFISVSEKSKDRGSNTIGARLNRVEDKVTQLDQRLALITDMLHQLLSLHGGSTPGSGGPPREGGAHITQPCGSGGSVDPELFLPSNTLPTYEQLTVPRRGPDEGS
OPRM1, sequence (P35372 whole entry): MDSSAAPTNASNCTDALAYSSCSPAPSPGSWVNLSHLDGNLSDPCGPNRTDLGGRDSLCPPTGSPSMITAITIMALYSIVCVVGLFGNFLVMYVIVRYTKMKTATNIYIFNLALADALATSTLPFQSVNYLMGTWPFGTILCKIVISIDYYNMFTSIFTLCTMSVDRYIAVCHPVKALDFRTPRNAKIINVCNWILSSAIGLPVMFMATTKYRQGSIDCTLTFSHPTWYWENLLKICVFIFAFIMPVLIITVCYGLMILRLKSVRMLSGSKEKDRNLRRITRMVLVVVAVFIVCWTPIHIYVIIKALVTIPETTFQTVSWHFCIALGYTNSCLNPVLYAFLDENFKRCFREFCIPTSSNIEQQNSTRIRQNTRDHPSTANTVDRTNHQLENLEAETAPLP

Sequence: APWHLSSQYSRT [CTP]
- antagonist action (OPRM1): no antagonist action
- blocking or activation (KvLQT1/minK): no significant blocking or activation
- opening action (KvLQT1/minK): nor any significant opening action
